Measured values as given in ChEMBL document CHEMBL1926671, “3D-Quantitative structure-activity relationship and docking studies of the tachykinin NK3 receptor” (Bioorg Med Chem Lett, 2011).

Biological target: T1, Neuromedin-K receptor (Homo sapiens, UniProt P29371)
T1 sequence (P29371 whole entry): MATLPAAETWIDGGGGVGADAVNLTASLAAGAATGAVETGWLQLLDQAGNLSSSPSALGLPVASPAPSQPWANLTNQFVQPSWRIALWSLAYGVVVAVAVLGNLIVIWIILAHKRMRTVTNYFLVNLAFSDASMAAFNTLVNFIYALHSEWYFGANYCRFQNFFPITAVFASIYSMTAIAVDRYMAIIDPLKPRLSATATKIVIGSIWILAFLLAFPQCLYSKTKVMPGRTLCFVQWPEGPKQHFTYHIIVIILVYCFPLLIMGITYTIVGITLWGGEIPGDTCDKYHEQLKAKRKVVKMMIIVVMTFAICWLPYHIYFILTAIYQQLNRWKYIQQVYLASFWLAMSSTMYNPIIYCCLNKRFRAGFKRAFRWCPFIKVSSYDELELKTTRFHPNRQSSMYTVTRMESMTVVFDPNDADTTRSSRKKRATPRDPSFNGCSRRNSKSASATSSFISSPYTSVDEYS
Assay: Binding affinity to human NK3 receptor expressed in CHO cells
Type: cell-based

Structure (SMILES): CCCCC(NC(=O)c1cc(-c2ccccc2)nc2ccccc12)c1ccccc1 (stereo unspecified)
- Ki: 0.158 µM
